Measured values published in patent US20230094922A1, “METHODS OF THERAPEUTIC PROGNOSTICATION” (GENETIKAPLUS LTD., priority 2020, published 2023).

Tested on: iPSC-derived cortical neurons
Assay: Dendritic spine length analysis, confocal imaging
Assay type: cell-based, human
Experimental: FIG. 8. Average dendritic spine length. Dendritic spine length was analyzed using confocal microscopy in samples treated with Bupropion. For imaging of dendritic spines, images were acquired using the Nikon Confocal A1R with a 60× objective and a 2× digital zoom in z-stacks. Analysis was performed using Neurolucida software. FIGS. 9A-9B. Average dendritic spine length in specific spine types. […] For imaging of dendritic spines, images were acquired using the Nikon Confocal A1R with a 60× objective and a 2× digital zoom in z-stacks. Analysis was performed using Neurolucida software. iPSC differentiation into neurons-iPSCs were seeded at a density of 3×10^6 cells/well on a hESC-qualified Matrigel pre-coated 6-well plate and incubated at 37° C., 5% CO2 overnight. Differentiation was initiated the following day (day 0) after verifying that 100% confluency was reached. Differentiation media was added daily according to the following order: […]7 (day 15 onward) similar to a previously published protocol developed by for rapid differentiation to cortical neurons. The components of the described media, Q1-7, are provided in Appendix 1. Cells were assessed for differentiation efficiency and cell death on a daily basis. On day 9, differentiated neurons were re-plated on either 96-well plates (destined for staining) or 12-well plates (destined for RNA extraction) that were coated with 15 μg/mL Poly-ornithine diluted in PBS (overnight incubation at 37° C.), followed by 1 μg/mL Laminin and 2 μg/mL Fibronectin diluted in PBS (overnight incubation at 37° C.): Neurons were first rinsed with pre-warmed PBS and 1 ml/well of Accutase was added for 35 minutes at 37° C., 5% CO2. DNAse1 (0.5 mg/mL) was then added for 10 additional minutes. 3 ml of pre-warmed Neurobasal media was added to each well and neurons were gently collected using a 5 ml […]. Wells were then verified for the presence of any remaining neurons. Neurons were spun down and resuspended in Q6 media. Neurons were seeded at a density of 150,000 cells/cm^2 placed back at 37° C. Following four hours of incubation, media was changed to Q6 media (150 μl per 96-well and 1 ml per 12-well). […] For dendritic arborization analysis, pre/post-synaptic markers and colocalization analysis; α-Syn, PSD95 and MAP2 primary antibodies were used. Following washes, fluorophore-coupled secondary antibodies were incubated in the blocking solution for 1 hour at room temperature. The cells were counter-stained with 4',6-diamidino-2-phenylindole (DAPI) for nuclei detection for 15 minutes at room temperature followed by washes with PBS. […] Neuronal and synaptic morphology was assessed using the Neurolucida software, pre- and post-synaptic marker analysis was performed using CellProfiler and total dendritic length was measured using Fiji software.

## CC(NC(C)(C)C)C(=O)c1cccc(Cl)c1 (stereo not drawn) [Bupropion, 3-Chloro-N-tert-butyl-β-keto-α-methylphenethylamin]
Cells derived from non-responders
  total dendritic spine length (average), after treatment: no difference
Cells derived from responders
  total dendritic spine length (average), after treatment: significant increase
Cells from non-responders
  specific spine types (mushroom, stubby, filopodia, thin), after treatment: increase in the number of stubby spines
responder's cells
  specific spine types (mushroom, stubby, filopodia, thin), after treatment: significant increase in the number of mushroom, stubby and thin spines
